Data on nine compounds can be found in publication PMC5908474 (European journal of medicinal chemistry, 2018).

The target in one experiment is recombinant human S1PR2 (Homo sapiens, UniProt O95136). As to the kind of experiment: [32P]S1P competitive binding assay, S1PR2.
The target in another experiment is recombinant human S1PR3 (Homo sapiens, UniProt Q99500). As to the kind of experiment: [32P]S1P competitive binding assay, S1PR3.
Another experiment concerns the target recombinant human S1PR1 (Homo sapiens, UniProt P21453). As to the kind of experiment: [32P]S1P competitive binding assay, S1PR1. To be noted: for IC50: mean ± SD, CHO cell membrane, recombinant human S1PR1, 0.1 nM [32P]S1P; for fold increased S1PR1 IC50 value compared to compound 4: vs compound 4 (2.6 nM).
A further experiment addresses T1, recombinant human S1PR4 (Homo sapiens, UniProt O95977).
T1 sequence (O95977 1-384): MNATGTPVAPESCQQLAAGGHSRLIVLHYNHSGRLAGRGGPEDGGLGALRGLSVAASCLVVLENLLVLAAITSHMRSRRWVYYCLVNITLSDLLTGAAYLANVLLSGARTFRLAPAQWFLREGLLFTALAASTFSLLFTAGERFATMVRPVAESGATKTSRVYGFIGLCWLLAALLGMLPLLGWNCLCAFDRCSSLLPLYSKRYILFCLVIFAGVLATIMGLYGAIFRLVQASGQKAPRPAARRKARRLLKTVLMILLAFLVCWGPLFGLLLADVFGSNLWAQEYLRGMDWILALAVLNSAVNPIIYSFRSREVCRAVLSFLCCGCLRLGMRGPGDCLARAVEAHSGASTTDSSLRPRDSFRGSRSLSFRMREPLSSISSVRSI
As to the kind of experiment: [32P]S1P competitive binding assay, S1PR4.

For another experiment, the target named is recombinant human S1PR5 (Homo sapiens, UniProt Q9H228). As to the kind of experiment: [32P]S1P competitive binding assay, S1PR5.
Chain of recombinant human S1PR5 (Q9H228 whole entry): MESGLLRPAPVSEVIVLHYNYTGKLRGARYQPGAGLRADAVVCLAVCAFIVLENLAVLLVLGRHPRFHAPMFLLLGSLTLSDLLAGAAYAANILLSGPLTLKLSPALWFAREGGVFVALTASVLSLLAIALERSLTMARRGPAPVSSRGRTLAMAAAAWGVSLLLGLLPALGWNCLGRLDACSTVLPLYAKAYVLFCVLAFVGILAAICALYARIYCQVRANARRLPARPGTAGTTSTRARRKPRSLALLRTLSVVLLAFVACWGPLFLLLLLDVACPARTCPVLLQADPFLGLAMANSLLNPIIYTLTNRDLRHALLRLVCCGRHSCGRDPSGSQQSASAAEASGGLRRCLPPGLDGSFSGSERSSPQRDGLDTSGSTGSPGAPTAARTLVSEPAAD

Like-named read-outs stand apart in the source and are kept apart here. Where only a bound is given, the exact number is not on record here.

Chain of recombinant human S1PR1 (P21453 whole entry): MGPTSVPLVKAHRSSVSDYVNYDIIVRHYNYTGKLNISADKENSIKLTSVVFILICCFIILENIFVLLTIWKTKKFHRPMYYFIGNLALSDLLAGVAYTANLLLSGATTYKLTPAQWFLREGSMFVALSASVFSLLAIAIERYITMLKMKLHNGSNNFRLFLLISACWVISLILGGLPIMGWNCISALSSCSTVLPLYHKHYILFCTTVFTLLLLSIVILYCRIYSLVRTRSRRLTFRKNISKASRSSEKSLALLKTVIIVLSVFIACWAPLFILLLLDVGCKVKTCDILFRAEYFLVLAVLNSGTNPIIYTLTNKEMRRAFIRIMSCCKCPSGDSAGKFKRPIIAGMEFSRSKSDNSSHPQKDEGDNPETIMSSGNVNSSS
Chain of recombinant human S1PR2 (O95136 whole entry): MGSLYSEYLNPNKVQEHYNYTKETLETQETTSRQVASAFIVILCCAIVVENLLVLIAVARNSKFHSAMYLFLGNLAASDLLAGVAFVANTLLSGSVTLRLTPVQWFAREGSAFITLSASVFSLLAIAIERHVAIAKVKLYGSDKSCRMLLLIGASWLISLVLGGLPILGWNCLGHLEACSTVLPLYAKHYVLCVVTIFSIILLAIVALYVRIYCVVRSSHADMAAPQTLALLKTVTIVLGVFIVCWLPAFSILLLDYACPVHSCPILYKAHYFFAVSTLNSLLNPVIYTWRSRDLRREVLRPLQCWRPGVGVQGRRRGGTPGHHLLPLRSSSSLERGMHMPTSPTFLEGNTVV
Chain of recombinant human S1PR3 (Q99500 whole entry): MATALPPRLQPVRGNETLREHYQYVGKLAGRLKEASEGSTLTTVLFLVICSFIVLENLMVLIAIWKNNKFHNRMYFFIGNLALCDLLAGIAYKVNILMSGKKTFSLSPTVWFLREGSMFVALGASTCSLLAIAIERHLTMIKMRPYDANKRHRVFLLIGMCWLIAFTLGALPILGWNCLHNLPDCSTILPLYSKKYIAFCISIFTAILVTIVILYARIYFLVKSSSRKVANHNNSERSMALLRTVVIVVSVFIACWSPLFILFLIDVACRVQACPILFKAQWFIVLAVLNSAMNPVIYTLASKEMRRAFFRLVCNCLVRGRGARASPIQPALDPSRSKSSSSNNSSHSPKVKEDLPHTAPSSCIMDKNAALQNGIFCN

The IC50 is the concentration that gives 50% inhibition. As for `NS(=O)(=O)c1ccc(-c2noc(-c3ccc(OCCF)c(C(F)(F)F)c3)n2)cc1` [9a, 4-(5-(4-(2-Fluoroethoxy)-3-(trifluoromethyl)phenyl)-1,2,4-oxadiazol-3-yl)benzenesulfonamide], the IC50 on recombinant human S1PR2 and on recombinant human S1PR3 was greater than 1000 nM throughout.

Turning to `O=C(O)c1ccc(-c2noc(-c3ccc(OCCF)c(C(F)(F)F)c3)n2)cc1` [10a, 4-(5-(4-(2-Fluoroethoxy)-3-(trifluoromethyl)phenyl)-1,2,4-oxadiazol-3-yl)benzoic acid], the concentration for half-maximal inhibition (IC50) on recombinant human S1PR1 (S1PR1 IC50 (nM)) was greater than 1000 nM.

On to `O=C(NO)c1ccc(-c2noc(-c3ccc(OCCF)c(C(F)(F)F)c3)n2)cc1` [10b, 4-(5-(4-(2-Fluoroethoxy)-3-(trifluoromethyl)phenyl)-1,2,4-oxadiazol-3-yl)-N-hydroxybenzamide], for which the “fold increased S1PR1 IC50 value compared to compound 9b” value at recombinant human S1PR1 (vs benzamide 9b) is 4 fold.

Regarding `NNC(=O)c1ccc(-c2noc(-c3ccc(OCCF)c(C(F)(F)F)c3)n2)cc1` [10c, 4-(5-(4-(2-Fluoroethoxy)-3-(trifluoromethyl)phenyl)-1,2,4-oxadiazol-3-yl)benzohydrazide], the “fold decreased S1PR1 IC50 value compared to compound 9b” value on recombinant human S1PR1 (vs benzamide 9b) was found to be 5 fold. Besides, the half-inhibitory concentration (IC50) on recombinant human S1PR2 and at recombinant human S1PR3 was greater than 1000 nM in each case.

With `O=C(O)c1cn(Cc2ccc(-c3noc(-c4ccc(OCCF)c(C(F)(F)F)c4)n3)cc2)nn1` [12a, 1-(4-(5-(4-(2-Fluoroethoxy)-3-(trifluoromethyl)phenyl)-1,2,4-oxadiazol-3-yl)benzyl)-1H-1,2,3-triazole-4-carbox-ylic acid], at recombinant human S1PR1 (read-out: S1PR1 IC50), the IC50 came to 341 ± 126 nM. In addition, at recombinant human S1PR1, the “fold increased S1PR1 IC50 value compared to compound 4” value is 130 fold.

Regarding `OCc1cn(Cc2ccc(-c3noc(-c4ccc(OCCF)c(C(F)(F)F)c4)n3)cc2)nn1` [12b, (1-(4-(5-(4-(2-Fluoroethoxy)-3-(trifluoromethyl)phenyl)-1,2,4-oxadiazol-3-yl)benzyl)-1H-1,2,3-triazol-4-yl)met-hanol], the “selectivity toward S1PR1 over S1PR2-5” value on recombinant human S1PR1 (S1PR1 over S1PR2-5) was greater than 100 fold. Moreover, the “fold decreased S1PR1 IC50 value compared to acid 12a” value at recombinant human S1PR1 (vs 12a (341 nM)) turned out to be 35 fold. Also, the IC50 at recombinant human S1PR2 (read-out: IC50 (nM) S1PR2, mean ± SD, membranes with recombinant human S1PR2, [32P]S1P) is greater than 1000 nM; on recombinant human S1PR3 (read-out: IC50 (nM) S1PR3, mean ± SD, membranes with recombinant human S1PR3, [32P]S1P) it was greater than 1000 nM; at recombinant human S1PR4 (read-out: IC50 (nM) S1PR4, mean ± SD, membranes with recombinant human S1PR4, [32P]S1P), greater than 1000 nM; on recombinant human S1PR5 (read-out: IC50 (nM) S1PR5, mean ± SD, membranes with recombinant human S1PR5, [32P]S1P), greater than 1000 nM.

For `O=C(O)CNCc1ccc(-c2noc(-c3ccc(OCCF)c(C(F)(F)F)c3)n2)cc1` [16a, (4-(5-(4-(2-Fluoroethoxy)-3-(trifluoromethyl)phenyl)-1,2,4-oxadiazol-3-yl)benzyl)glycine], the IC50 on recombinant human S1PR1 (S1PR1 IC50 (nM)) was determined as 99.8 ± 12.2 nM. Further, at recombinant human S1PR1, the “fold increased S1PR1 IC50 value compared to compound 4” value came out at 38 fold.

With `O=C(O)CCNCc1ccc(-c2noc(-c3ccc(OCCF)c(C(F)(F)F)c3)n2)cc1` [16b, 3-((4-(5-(4-(2-Fluoroethoxy)-3-(trifluoromethyl)phenyl)-1,2,4-oxadiazol-3-yl)benzyl)amino)propanoic acid], the IC50 is 6.3 ± 1.3 nM on recombinant human S1PR1 (S1PR1 IC50 (nM)); greater than 1000 nM on recombinant human S1PR2; greater than 1000 nM on recombinant human S1PR3; greater than 1000 nM at recombinant human S1PR4; greater than 1000 nM on recombinant human S1PR5.

In the case of `NCCOCc1ccc(-c2noc(-c3ccc(OCCF)c(C(F)(F)F)c3)n2)cc1` [21b, 2-((4-(5-(4-(2-Fluoroethoxy)-3-(trifluoromethyl)phenyl)-1,2,4-oxadiazol-3-yl)benzyl)oxy)ethan-1-amine], the IC50 on recombinant human S1PR1 (S1PR1 IC50 (nM)) worked out at 44.2 ± 6.8 nM.
